Data: patent US10450317B2, “Notch pathway signaling inhibitor compounds” (Eli Lilly and Company, priority 2015, dated 2019)
Marks after values point to notes of the source that are not given here.

Columns and labels:
[1] = test system: mouse Notch1; assay: Notch1 N1ICD nuclear accumulation cellular imaging assay; format: cell-based; details: HEK293ΔE12 cells, 24 hours treatment, n=2; read-out: average IC50 for the nuclear N1ICD signal
Method: (§1) HEK293ΔE12 cells (HEK293 cells are engineered to stably express mouse Notch1 cDNA coding for amino acid 1703-2183, Np_932740.3, (Full length mouse Notch 1 protein precursor: SEQ ID NO:1) with 23 amino acid signal peptide sequence, […] (SEQ ID NO:2), at its N-terminus) are plated at 5000 cells/well in 96 well plates, incubated in Dulbecco's Modified. Eagle's Medium (DMEM)-high glucose with 5% fetal bovine serum (FBS) at 37° C., 5% CO2 for 24 hours. Cells are treated with test compound, dosing at 10 points of 1:3 dilutions across the range of 1000 nM to 0.05 nM, and with final dimethyl sulfoxide (DMSO) concentration at 0.2%. […] Plates are scanned with ACUMEN EXPLORER™ Laser-scanning fluorescence microplate cytometer (TTP LABTECH LTD) to measure total cell nuclear count/well and total nuclear area/well with fluorescence at 655 nm-705 nm (emission of DNA bound propidium iodide) and fluorescence of antibody binding to N1ICD in nuclear region at 505 nm-530 nm. The main assay output is a ratio of total fluorescence of nuclear N1ICD to total nuclear area, the normalized nuclear N1ICD signal. […] Concentration response and the IC50 are determined by curve fitting to a four parameter logistic for the nuclear N1ICD signal, while the % cell number is plotted in the same graph for cytotoxicity profiling.

[2] = test system: HEK293ΔE12 cells; assay: Relative cytotoxicity profiling (% cell number) in the N1ICD imaging assay; format: cell-based, human; details: up to 1000 nM concentration, 24 hours treatment
Method: as §1

[3] = test system: hair cell markers Atoh1, Pou4f3, Myo7A in gentamicin-damaged organ of Corti explants; assay: Organ of Corti explant, gene expression analysis after ototoxic (gentamicin) damage; format: cell-based, mice; details: 5 μM after gentamicin (100 μM) damage, n = 11
Method: A variation of the organ of Corti organotypic explant culture is used to model hair cell regeneration in response to subsequent compound treatment after ototoxic damage. This damage model is carried out according to the method described in Korrapati et al., PLOSOne, 2013, 8(8), e73276 where a 95% reduction in mid-apical hair cells was reported. On Day 0, to damage and selectively kill hair cells within the organ of Corti explant, aminoglycoside treatment (gentamicin (100 μM)) is added for 18-24 hours. On Day 1, gentamicin is removed and treatment with Compound 1, Isomer 2 and Compound 2, Isomer 2 at 5 μM began. Explant culture continues for 4 days total at which point the culture is prepared for the qRT-PCR protocol described above. Visible confirmation of gentamicin-induced damage is easily observed between cultures treated with negative control compounds. However, quantitative measurement for the response to Compound 1, Isomer 2 and Compound 2, Isomer 2 treatment following ototoxic damage obtained by qRT-PCR measured increases in gene expression for prosensory hair cell markers Atoh1 and Pou4f3 and the hair cell marker Myo7A.
Data represent the percent increase in gene expression relative to negative control-treated samples with the gentamicin-induced hair cell damage. (*, significant difference from negative control, p<0.05)

SMILES	IC50 [1] [nM]	effect on cell number (cytotoxicity profiling) [2]	% Induction Over Control-treated Damaged Organ of Corti, Atoh1 (Mean ± SEM) [3]	% Induction Over Control-treated Damaged Organ of Corti, Myo7A (Mean ± SEM) [3]	% Induction Over Control-treated Damaged Organ of Corti, Pou4f3 (Mean ± SEM) [3]
COc1ccc2c(c1)N1CCC(C)(C)C1=CC(=O)C2NC(=O)[C@H](C)NC(=O)CCC(F)(F)F (single isomer, unassigned) [Compound 1, Isomer 2]	0.37	Neither compound affects cell number	242 ± 16; %	102 ± 18; 0.0522%	114 ± 25; <0.05* %
C[C@H](NC(=O)CCC(F)(F)F)C(=O)NC1C(=O)C=C2N(CCC2(C)C)c2ncccc21 (single isomer, unassigned) [Compound 2, Isomer 2]	1.55	Neither compound affects cell number	169 ± 24; <0.05* %	52 ± 15; not signif. %	28 ± 11; 0.0633%
